Results as given in PMC8556085, “Antimicrobial and Antioxidant Secondary Metabolites from Trifolium baccarinii Chiov. (Fabaceae) and Their Mechanisms of Antibacterial Action” (BioMed Research International, 2021).
Values after ≈ are worked out from the molar mass of the structure shown. Marks after values point to notes of the source that are not given here.

Experiments:
[1] = tested on: methicillin-resistant Staphylococcus aureus 03 (MRSA03); assay: Broth microdilution MIC/MMC; type: cell-based; conditions: for MBC / MIC: Staphylococcus aureus; for MBC / MMC/MIC: MRSA03; for MIC: MRSA03, 24 h, 37°C, read-out: MIC
Method: (§1) The antimicrobial activity was performed against five bacterial and two fungal species. The selected microorganisms were the Gram-positive (Staphylococcus aureus ATCC25923, methicillin-resistant Staphylococcus aureus 03 (MRSA03), and methicillin-resistant Staphylococcus aureus 04 (MRSA04)) and Gram-negative (Pseudomonas aeruginosa ATCC27853 and Escherichia coli S2(1)) bacteria and yeast strains of Candida albicans ATCC10231 and Cryptococcus neoformans H99. These microorganisms were taken from our laboratory collection. The fungal and bacterial strains were conserved on Sabouraud Dextrose Agar (SDA, Conda, Madrid, Spain) and nutrient agar (NA, Conda) slants, respectively.
(§2) The antimicrobial activity was investigated by determining the minimum inhibitory concentrations (MICs), minimum bactericidal concentrations (MBC), and minimum fungicidal concentrations (MFCs). MICs of extracts/compounds were monitored using the broth microdilution method. Dimethyl sulfoxide (DMSO, Fisher Chemicals) was used to dissolve the test sample to produce a stock solution that was twofold serially diluted in Mueller-Hinton broth (MHB) for bacteria and Sabouraud Dextrose Broth (SDB) for fungi to obtain a concentration range of 4096 to 0.25 μg/mL. One hundred microliters of each concentration was introduced into a well (96-well microplate) containing 90 μL of SDB or MHB and 10 μL of inoculum (at 1 × 10^6 CFU/mL for bacteria and 1 × 10^5 spores/mL for yeasts) which were added to obtain a final concentration range of 2048 to 0.125 μg/mL. Plates were covered and incubated on the shaker at 37°C, 30°C, and 30°C during 24 h, 48 h, and 72 h for bacteria, Candida albicans, and Cryptococcus neoformans, respectively. The MICs were visually assessed after the incubation period and were considered the lowest sample concentration that inhibits the growth or the visual growth of the organism.
(§3) The positive controls were oxacillin (Sigma-Aldrich, Steinheim, Germany) for bacteria and nystatin (Sigma-Aldrich, Steinheim, Germany) for yeasts, and the negative control was broth with 20 μL of DMSO. The assay was carried out in triplicate.

[2] = tested on: methicillin-resistant Staphylococcus aureus 04 (MRSA04); assay: Broth microdilution MIC/MMC; type: cell-based; conditions: for MBC / MIC: Staphylococcus aureus; for MBC / MMC/MIC: MRSA04; for MIC: MRSA04, 24 h, 37°C, read-out: MIC
Method: as §1, §2, §3

[3] = tested on: Pseudomonas aeruginosa ATCC27853; assay: Broth microdilution MIC/MMC; type: cell-based; conditions: for MBC / MMC/MIC: Pseudomonas aeruginosa ATCC27853; for MIC: Pseudomonas aeruginosa ATCC27853, 24 h, 37°C, read-out: MIC
Method: as §1, §2, §3

[4] = tested on: Candida albicans ATCC10231; assay: Broth microdilution MIC/MMC; type: cell-based; conditions: for MFC / MMC/MIC: Candida albicans ATCC10231; for MIC: Candida albicans ATCC10231, 48 h, 30°C, read-out: MIC
Method: as §1, §2, §3

[5] = tested on: Staphylococcus aureus ATCC25923; assay: Broth microdilution MIC/MMC; type: cell-based; conditions: for MBC / MMC/MIC: Staphylococcus aureus ATCC25923; for MIC: Staphylococcus aureus ATCC25923, 24 h, 37°C, read-out: MIC
Method: as §1, §2, §3

[6] = tested on: Cryptococcus neoformans H99; assay: Broth microdilution MIC/MMC; type: cell-based; conditions: for MFC / MMC/MIC: Cryptococcus neoformans H99; for MIC: Cryptococcus neoformans H99, 72 h, 30°C, read-out: MIC
Method: as §1, §2, §3

Escherichia coli S2(1) = assay: Broth microdilution MIC/MMC; type: cell-based; conditions: for MIC: 24 h, 37°C, read-out: MIC
Method: as §1, §2, §3

[7] = tested on: tested bacteria and yeasts; assay: Broth microdilution MIC/MMC, summary over all strains; type: cell-based; conditions: for antimicrobial activity class of pure compounds by cutoff points: against specific microorganism, cutoff points of ref 33; for antimicrobial activity: against the tested microorganisms; for MIC: read-out: MIC (range over the tested microorganisms)
Method: as §1, §2, §3

[8] = Gallic acid equivalent antioxidant capacity (GEAC) assay; conditions: for Gallic acid equivalent antioxidant capacity (GEAC): ABTS radical, 420 nm, 240 s, mean ± SD
Method: The GEAC test was performed as described previously with some slight modifications. The laccase was purified from Sclerotinia sclerotiorum according to the described protocol. 20 μL of laccase (1 mM stock solution), 20 μL of test sample, 10 μL of ABTS (2,2′-azino-bis(3-ethylbenzothiazoline-6-sulfonic acid) (74 mM stock solution), and 950 μL of acetate buffer (pH = 5.0, 100 mM) were added in a quartz cuvette. The concentrations of the samples in the assay mixture were 800, 400, 200, 100, and 10 μg/mL for the extracts and 200, 100, 50, 25, and 12.5 μg/mL for the isolated compounds. The content of the generated ABTS^●+ radical was measured at 420 nm after 240 s reaction time and was converted to gallic acid equivalents by the use of a calibration curve (Pearson's correlation coefficient: r = 0.998) constructed with 0, 4, 10, 14, 28, 56, and 84 μM gallic acid standards rather than Trolox. Experiments were done in triplicate and repeated three times with similar results.

[9] = DPPH free radical scavenging assay; conditions: for DPPH free radical scavenging activity (EC50): mean ± SD
Method: The free radical scavenging activity of extracts and compounds was evaluated according to the described method. The EC50 (μg/mL), which is the amount of sample necessary to inhibit by 50% the absorbance of free radical DPPH, was calculated. Vitamin C was used as a standard control. All the analyses were carried out in triplicate and repeated three times.

| SMILES | MBC [1] [µg/mL] | MIC [1] [µg/mL] | MBC [2] [µg/mL] | MIC [2] [µg/mL] | MBC [3] [µg/mL] | MIC [3] [µg/mL] | MFC [4] [µg/mL] | MIC [4] [µg/mL] | MBC [5] [µg/mL] | MIC [5] [µg/mL] | MFC [6] [µg/mL] | MIC [6] [µg/mL] | MBC (Escherichia coli S2(1)) [µg/mL] | MIC (Escherichia coli S2(1)) [µg/mL] | antimicrobial activity class of pure compounds by cutoff points [7] | antimicrobial activity [7] | MIC [7] [µg/mL] | activity in TEAC assay [8] | activity in DPPH assay [9] | MMC/MIC [1] | other results |
| --- | --- | --- | --- | --- | --- | --- | --- | --- | --- | --- | --- | --- | --- | --- | --- | --- | --- | --- | --- | --- | --- |
| CO[C@@H]1O[C@H](CO)[C@@H](O)[C@H](O)[C@H]1O [compound 7, 1-methyl-β-D-glucopyranoside] | > 256 | > 256 | > 256 | > 256 | > 256 | > 256 | > 256 | > 256 | > 256 | > 256 | > 256 | > 256 | > 256 | > 256 | not active | not active | > 256 | inactive | inactive | – | – |
| COc1ccc(-c2coc3cc(O)cc(O)c3c2=O)cc1 [compound 1, biochanin A] | 128 (≈ 450 µM) | 64 (≈ 225 µM) | 128 (≈ 450 µM) | 64 (≈ 225 µM) | 64 (≈ 225 µM) | 32 (≈ 113 µM) | 64 (≈ 225 µM) | 32 (≈ 113 µM) | 32 (≈ 113 µM) | 32 (≈ 113 µM) | 32 (≈ 113 µM) | 32 (≈ 113 µM) | 64 (≈ 225 µM) | 32 (≈ 113 µM) | moderate | – | 32 to 64 (≈ 113 to 225 µM) | – | – | 2 | MMC/MIC [2]: 2; MMC/MIC [3]: 2; MMC/MIC [4]: 2; MMC/MIC [5]: 1; MMC/MIC [6]: 1; MMC/MIC (Escherichia coli S2(1)): 2; Gallic acid equivalent antioxidant capacity (GEAC) [8]: 101.77 ± 1.24^d μg/mL; DPPH free radical scavenging activity (EC50) [9]: 4.87 ± 0.43^d μg/mL |
| CC1(C)CC(O)C2(C)CCC3(C)C(=CCC4C5(C)CCC(OC6OC(C(=O)O)C(O)C(O)C6O)C(C)(CO)C5CCC43C)C2C1 [compound 10, 3-O-β-D-glucuronopyranosylsoyasapogenol B] | > 256 | > 256 | > 256 | > 256 | > 256 | 256 (≈ 403 µM) | > 256 | > 256 | > 256 | 256 (≈ 403 µM) | > 256 | 256 (≈ 403 µM) | > 256 | 256 (≈ 403 µM) | low/not active | low activity | ≥ 256 | inactive | inactive | – | – |
| O=c1cc(-c2ccc(O[C@@H]3O[C@H](CO)[C@@H](O)[C@H](O)[C@H]3O)c(O)c2)oc2cc(O)cc(O)c12 [compound 4, luteolin-4′-O-β-D-glucopyranoside] | 128 (≈ 285 µM) | 64 (≈ 143 µM) | 128 (≈ 285 µM) | 64 (≈ 143 µM) | 128 (≈ 285 µM) | 64 (≈ 143 µM) | 16 (≈ 35.7 µM) | 16 (≈ 35.7 µM) | 64 (≈ 143 µM) | 32 (≈ 71.4 µM) | 16 (≈ 35.7 µM) | 16 (≈ 35.7 µM) | 32 (≈ 71.4 µM) | 32 (≈ 71.4 µM) | moderate | – | 16 to 64 (≈ 35.7 to 143 µM) | – | – | 2 | MMC/MIC [2]: 2; MMC/MIC [3]: 2; MMC/MIC [4]: 1; MMC/MIC [5]: 2; MMC/MIC [6]: 1; MMC/MIC (Escherichia coli S2(1)): 1; Gallic acid equivalent antioxidant capacity (GEAC) [8]: 118.71 ± 0.19^g μg/mL; DPPH free radical scavenging activity (EC50) [9]: 3.71 ± 0.99^d μg/mL |
